{
  "source": "patent US20100254940A1",
  "about": "“Compositions and Methods for Regulating an Immune Response in a Subject” (INNATE PHARMA, S.A., priority 2002, published 2010)",
  "key": {"[1]": {"test_system": "γδ T cell", "experiment": "γδ T cell amplification from human PBMCs, counting γδ T cell using flow cytometry (given as in vivo EC50)", "assay_type": "cell-based", "settings": "for EC50: γδ T cell amplification from human PBMCs, flow cytometry count", "description": "The biological activity of γδ T cell amplification from human PBMCs was assessed by counting γδ T cell using flow cytometry.\nIn vitro proliferation assays and in vitro TNFα release assay are performed essentially as described in Example 3."}, "[2]": {"test_system": "γδ T cell", "experiment": "In vitro TNFα release assay, γδ T cell amplification from human PBMCs (in the presence of rhIL2)", "assay_type": "cell-based", "description": "The in vitro biological activity of γδ T cell amplification from human PBMCs (in the presence of rhIL2) was assessed using a TNFα release assay.\nCytokine secretion and cytolytic activity can be assessed using any appropriate in vitro assay, or those provided in the examples herein. For example, cytokine secretion can be determined according to the methods described in Espinosa et al. (J. Biol. Chem., 2001, Vol. 276, Issue 21, 18337-18344), describing measurement of TNF-α release in a bioassay using TNF-α-sensitive cells. Briefly, 10^4 γδT cells/well were incubated with stimulus plus 25 units of IL2/well in 100 μl of culture medium during 24 h at 37° C. Then, 50 μl of supernatant were added to 50 μl of WEHI cells plated at 3×10^4 cells/well in culture medium plus actinomycin D (2 μg/ml) and LiCl (40 mM) and incubated for 20 h at 37° C. Viability of the TNF-α-sensitive cells and measured with a 3-(4,5-dimethylthiazol-2-yl)-2,5-diphenyltetrazolium bromide assay. 50 μl of 3-(4,5-dimethylthiazol-2-yl)-2,5-diphenyltetrazolium bromide (Sigma; 2.5 mg/ml in phosphate-buffered saline) per well were added, and after 4 h of incubation at 37° C., 50 μl of solubilization buffer (20% SDS, 66% dimethyl formamide, pH 4.7) were added, and absorbance (570 nm) was measured. Levels of TNF-α release were then calculated from a standard curve obtained using purified human rTNF-α (PeproTech, Inc., Rocky Hill, N.J.). Interferon-γ released by activated T cells was measured by a sandwich enzyme-linked immunosorbent assay. 5×10^4 γδT cells/well were incubated with stimulus plus 25 units of IL2/well in 100 μl of culture medium during 24 h at 37° C. Then, 50 μl of supernatant were harvested for enzyme-linked immunosorbent assay using mouse monoclonal antibodies (BIOSOURCE, Camarillo, Calif.). […]\nBrHPP and HDMAPP bioactivity were compared using in vitro and in vivo assays. The in vitro biological activity of γδ T cell amplification from human PBMCs (in the presence of rhIL2) was assessed using a TNFα release assay."}, "[3]": {"test_system": "Vγ9/Vδ2 T cells", "settings": "reported; cited from earlier work"}, "[4]": {"test_system": "γδ T cells", "experiment": "In vivo γδ T cell amplification after successive i.v. HDMAPP/IL2 injections in cynomolgus monkeys", "parameters": "species or system cynomolgus monkeys (M. fascicularis)", "settings": "day 5", "description": "Eight purpose bred healthy male cynomolgus monkeys (M. fascicularis). At the beginning of the study, body weights ranged from 3.5 to 4 kg and ages from 37 to 41 months.\nAnimals were anaesthetised with intra-muscular injection of 6 mg/kg Zoletil™ 100 (Tiletamine-Zolazepam, Virbac, Carros, France) before any perfusion.\nHDMAPP was administered i.v. to male cynomolgus monkeys by 30-minute perfusions in a total volume of 50 ml with Ringer Lactate as vehicle. […]\nThe animals were co-treated subcutaneously with 0.6M IU IL2 in sterile water per day for 5 days.\nBlood was drawn pre-dose and at day 4, 5, 7, 11 and 14 after HDMAPP perfusion for flow cytometry analysis of blood cellular populations of interest.\nPeripheral γδ lymphocytes were analysed by flow cytometry on total monkey blood, after triple staining with anti-Vgamma9FITC, anti-CD3PE and anti-CD69PC5 antibodies (Vgamma9-FITC: 7B6 clone, produced, purified and FITC-coupled at Innate Pharma; CD3-PE: SP34 clone, BD Biosciences Pharmingen, Le Pont de Claix, France; CD69PC5: FN50 clone, Immunotech-Beckman-Coulter, Marseilles, France).\nBriefly, 50 μl monkey blood was incubated 15 min at RT with 10 μl anti-gamma9-FITC, 5 μl anti-CD3-PE and 5 μl anti-CD69PC5 antibodies. Antibodies were washed with 3 ml 1×PBS, centrifuged for 4 min at 1300 rpm at RT and supernatant was discarded. Red cells were lysed with the OptiLyse C reagent (Immunotech-Beckman-Coulter, Marseilles, France) according to the manufacturer's instructions. At the final step, stained white blood cells were recovered by centrifugation and resuspended in 300 μl 1×PBS+0.2% PFA. Immediately before analysis, 50 μl calibrated Flow Count™ Fluorospheres (Immunotech-Beckman-Coulter, Marseilles, France) were added to the cells for absolute number counting of the populations of interest."}, "[5]": {"test_system": "γδ T cells", "settings": "Wilhelm et al., 2003; cited from earlier work"}},
  "data": [
    {"smiles": "O=P(O)(O)C(O)(Cn1ccnc1)P(=O)(O)O", "note": "[Zoledronate®, reference compound]", "values": [
      {"measurement": "EC50", "setting": "[1]", "result": "~1000", "unit": "nM"}
    ]},
    {"smiles": "C/C(=C\\COP(=O)(O)OP(=O)(O)O)CO", "note": "[HDMAPP, (E)-4-hydroxy-3-methyl-2-butenyl pyrophosphate]", "values": [
      {"measurement": "difference in potency", "setting": "[2]; HDMAPP vs BrHPP, in vitro EC50", "result": "~50", "unit": "fold"},
      {"measurement": "EC50", "setting": "[2]; T-cell, TNFα release assay, human PBMCs, rhIL2", "result": "~0.6", "unit": "nM"},
      {"measurement": "EC50", "setting": "[3]", "result": "~0.1", "unit": "nM"},
      {"measurement": "γδ cells among CD3+", "setting": "[4]; first of 4 successive injections, 5 weeks apart, 2.6 mg/kg", "result": "approx. 60%"},
      {"measurement": "γδ cells among CD3+", "setting": "[4]; fourth of 4 successive injections", "result": "~40", "unit": "%"},
      {"measurement": "γδ cells among CD3+", "setting": "[4]; second of 4 successive injections", "result": "~55", "unit": "%"},
      {"measurement": "γδ cells among CD3+", "setting": "[4]; third of 4 successive injections", "result": "approx. 60%"},
      {"measurement": "difference in potency", "setting": "[1]; HDMAPP vs BrHPP", "result": "~2", "unit": "log"},
      {"measurement": "EC50", "setting": "[1]", "result": "~0.005", "unit": "nM"}
    ]},
    {"smiles": "NCCC(O)(P(=O)(O)O)P(=O)(O)O", "note": "[pamidronate]", "values": [
      {"measurement": "increase in γδ T cell count", "setting": "[5]", "result": "≤ 2", "unit": "fold"}
    ]}
  ]
}
